Test results published in patent US9113629B2, “4-amino-6-(4-substituted-phenyl)-picolinates and 6-amino-2-(4-substituted-phenyl)-pyrimidine-4-carboxylates and their use as herbicides” (DOW AGROSCIENCES LLC, priority 2013, dated 2015).

Assays:
[1] = tested on: Key Grass and Sedge Weeds as well as Grass Crops; test: Post-emergent Test II herbicidal activity (Table 6); format: in vivo; details: for Visual Growth Reduction (%) 14 Days After Application, CYPES: CYPES: yellow nutsedge (Cyperus esculentus); for Visual Growth Reduction (%) 14 Days After Application, DIGSA: DIGSA: crabgrass (Digitaria sanguinalis); for Visual Growth Reduction (%) 14 Days After Application, ECHCG: ECHCG: barnyardgrass (Echinochloa crus-galli); for Visual Growth Reduction (%) 14 Days After Application, ORYSA: ORYSA: rice (Oryza sativa); for Visual Growth Reduction (%) 14 Days After Application, ORYSA / Visual Growth Reduction (%) 14 Days After Application, TRZSS / Visual Growth Reduction (%) 14 Days After Application, ZEAMX: crop; for Visual Growth Reduction (%) 14 Days After Application, SETFA: SETFA: giant foxtail (Setaria faberi); for Visual Growth Reduction (%) 14 Days After Application, SORVU: SORVU: sorghum (Sorghum vulgare); for Visual Growth Reduction (%) 14 Days After Application, TRZSS: TRZSS (wheat, Triticum aestivum); for Visual Growth Reduction (%) 14 Days After Application, ZEAMX: ZEAMX: maize, corn (Zea mays)
Procedure: (§1) Post-emergent Test II: Seeds or nutlets of the desired test plant species were planted in Sun Gro Metro-Mix® 360 planting mixture, which typically has a pH of 6.0 to 6.8 and an organic matter content of about 30 percent, in plastic pots with a surface area of 64 square centimeters. When required to ensure good germination and healthy plants, a fungicide treatment and/or other chemical or physical treatment was applied. The plants were grown for 7-21 d in a greenhouse with an approximate 15 h photoperiod which was maintained at about 23-29° C. during the day and 22-28° C. during the night. Nutrients and water were added on a regular basis and supplemental lighting was provided with overhead metal halide 1000-Watt lamps as necessary. The plants were employed for testing when they reached the first or second true leaf stage.
(§2) A weighed amount, determined by the highest rate to be tested, of each test compound was placed in a 25 mL glass vial and was dissolved in 4 mL of a 97:3 v/v mixture of acetone and DMSO to obtain concentrated stock solutions. […] The concentrated stock solutions obtained were diluted with 20 mL of an aqueous mixture containing acetone, water, isopropyl alcohol, DMSO. Atplus 411F crop oil concentrate, and Triton® X-155 surfactant in a 48.5:39:10:1.5:1.0:0.02 v/v ratio to obtain spray solutions containing the highest application rates. Additional application rates were obtained by serial dilution of 12 mL of the high rate solution into a solution containing 2 mL of 97:3 v/v mixture of acetone and DMSO and 10 mL of an aqueous mixture containing acetone, water, isopropyl alcohol, DMSO, Atplus 411F crop oil concentrate, and Triton X-155 surfactant in a 48.5:39:10:1.5:1.0:0.02 v/v ratio to obtain ½×, ¼×, ⅛× and 1/16× rates of the high rate. Compound requirements are based upon a 12 mL application volume at a rate of 187 liters per hectare (L/ha). Formulated compounds were applied to the plant material with an overhead Mandel track sprayer equipped with 8002E nozzles calibrated to deliver 187 L/ha over an application area of 0.503 square meters at a spray height of 18 inches (43 cm) above the average plant canopy height. Control plants were sprayed in the same manner with the solvent blank.
(§3) The treated plants and control plants were placed in a greenhouse as described above and watered by subirrigation to prevent wash-off of the test compounds. After 14 d, the condition of the test plants as compared with that of the untreated plants was determined visually and scored on a scale of 0 to 100 percent where 0 corresponds to no injury and 100 corresponds to complete kill.

[2] = tested on: Key Broadleaf Weed and Crop Species; test: Post-emergent Test II herbicidal activity (Table 5); format: in vivo; details: for Visual Growth Reduction (%) 14 Days After Application, ABUTH: ABUTH: velvetleaf (Abutilon theophrasti); for Visual Growth Reduction (%) 14 Days After Application, AMARE: AMARE: redroot pigweed (Amaranthus retroflexus); for Visual Growth Reduction (%) 14 Days After Application, BRSNN: BRSNN: oilseed-rape, canola (Brassica napus); for Visual Growth Reduction (%) 14 Days After Application, CHEAL: CHEAL: lambsquarters (Chenopodium album); for Visual Growth Reduction (%) 14 Days After Application, EPHHL: EPHHL: wild poinsettia (Euphorbia heterophylla); for Visual Growth Reduction (%) 14 Days After Application, HELAN: HELAN: sunflower (Helianthus annuus); for Visual Growth Reduction (%) 14 Days After Application, VIOTR: VIOTR: wild pansy (Viola tricolor)
Procedure: as §1, §2, §3

**Q.** For C=Cc1c(N)nc(-c2ccc(I)cc2)nc1C(=O)OC [Compound 164, methyl 6-amino-2-(4-iodophenyl)-5-vinylpyrimidine-4-carboxylate], which melting point is on record?
**A.** 142 to 144 °C

**Q.** For C#Cc1ccc(-c2nc(C(=O)O)c(Cl)c(N)c2C)cc1F [Compound 6, 4-Amino-3-chloro-6-(4-ethynyl-3-fluorophenyl)-5-methylpicolinic acid], which melting point is on record?
**A.** 175 to 176.5 °C

**Q.** Which melting point does the source give for C=Cc1c(C(=O)OC)nc(-c2ccc(I)cc2)c(F)c1N [Compound 139, methyl 4-amino-5-fluoro-6-(4-iodophenyl)-3-vinylpicolinate] here?
**A.** 95 to 96 °C

**Q.** With COc1c(N)nc(-c2ccccc2)nc1C(=O)O [Compound 207] as the compound, how does the melting point read?
**A.** 130 to 132 °C

**Q.** What does the source list for COC(=O)c1nc(-c2ccc([N+](=O)[O-])cc2F)c(F)c(N)c1Cl [Compound 80]?
**A.** Visual Growth Reduction (%) 14 Days After Application, CYPES ([1]; 70 g ai/ha): G (0-29); Visual Growth Reduction (%) 14 Days After Application, CYPES ([1]; 140 g ai/ha): G (0-29); Visual Growth Reduction (%) 14 Days After Application, DIGSA ([1]; 70 g ai/ha): G (0-29); Visual Growth Reduction (%) 14 Days After Application, DIGSA ([1]; 140 g ai/ha): G (0-29); Visual Growth Reduction (%) 14 Days After Application, ECHCG ([1]; 70 g ai/ha): G (0-29); Visual Growth Reduction (%) 14 Days After Application, ECHCG ([1]; 140 g ai/ha): G (0-29); Visual Growth Reduction (%) 14 Days After Application, ORYSA ([1]; 70 g ai/ha): G (0-29); Visual Growth Reduction (%) 14 Days After Application, ORYSA ([1]; 140 g ai/ha): G (0-29); Visual Growth Reduction (%) 14 Days After Application, SETFA ([1]; 70 g ai/ha): G (0-29); Visual Growth Reduction (%) 14 Days After Application, SETFA ([1]; 140 g ai/ha): G (0-29); Visual Growth Reduction (%) 14 Days After Application, SORVU ([1]; 70 g ai/ha): G (0-29); Visual Growth Reduction (%) 14 Days After Application, SORVU ([1]; 140 g ai/ha): G (0-29); Visual Growth Reduction (%) 14 Days After Application, TRZSS ([1]; 70 g ai/ha): G (0-29); Visual Growth Reduction (%) 14 Days After Application, TRZSS ([1]; 140 g ai/ha): G (0-29); Visual Growth Reduction (%) 14 Days After Application, ZEAMX ([1]; 70 g ai/ha): G (0-29); Visual Growth Reduction (%) 14 Days After Application, ZEAMX ([1]; 140 g ai/ha): G (0-29); Visual Growth Reduction (%) 14 Days After Application, ABUTH ([2]; application rate 70 g ai/ha): G (0-29); Visual Growth Reduction (%) 14 Days After Application, ABUTH ([2]; application rate 140 g ai/ha): G (0-29); Visual Growth Reduction (%) 14 Days After Application, AMARE ([2]; application rate 70 g ai/ha): D (60-74); Visual Growth Reduction (%) 14 Days After Application, AMARE ([2]; application rate 140 g ai/ha): B (85-94); Visual Growth Reduction (%) 14 Days After Application, BRSNN ([2]; application rate 70 g ai/ha): G (0-29); Visual Growth Reduction (%) 14 Days After Application, BRSNN ([2]; application rate 140 g ai/ha): G (0-29); Visual Growth Reduction (%) 14 Days After Application, CHEAL ([2]; application rate 70 g ai/ha): A (95-100); Visual Growth Reduction (%) 14 Days After Application, CHEAL ([2]; application rate 140 g ai/ha): A (95-100); Visual Growth Reduction (%) 14 Days After Application, EPHHL ([2]; application rate 70 g ai/ha): C (75-84); Visual Growth Reduction (%) 14 Days After Application, EPHHL ([2]; application rate 140 g ai/ha): C (75-84); Visual Growth Reduction (%) 14 Days After Application, HELAN ([2]; application rate 70 g ai/ha): D (60-74); Visual Growth Reduction (%) 14 Days After Application, HELAN ([2]; application rate 140 g ai/ha): C (75-84); Visual Growth Reduction (%) 14 Days After Application, VIOTR ([2]; application rate 70 g ai/ha): G (0-29); Visual Growth Reduction (%) 14 Days After Application, VIOTR ([2]; application rate 140 g ai/ha): G (0-29)
